According to patent publication US6512007B1, “Use of galiella lactone” (Bayer Aktiengesellschaft, priority 2000, dated 2003):

System: primary neurons of the rat cerebellum
Experiment: NMDA-mediated calcium influx into primary neurons after chronic IL-6 treatment
Type: cell-based
Protocol: Cultures of primary neurons were obtained from the cerebella of rats 6 to 8 days old as described by B. Engelsen and R. Bjerkvig [in R. I. Freshney (Editor) Culture of Animal Cells, 2nd Edition, Alan R. Liss, Inc. New York 1987, 277-279]. After removal of the tissue, single cells were obtained using papain and were seeded out in a density of 200 00 cells per well in microtitre plates (96 wells) coated with poly-D-lysine. The cells were cultivated in a growth medium consisting of DMEM/F12, 10% heat-inactivated horse serum. 25 mM KCl, 30 mM glucose, 2 mM glutamine. In order to minimize the number of glial cells, 5-fluoro-2′-deoxyuridine (20 μg/ml) was added on the first and fourth day in culture. The cultures obtained in this way consisted of more than 95% neurons.
Human recombinant interluekin-6 (IL-6) was dissolved in physiological salt solution (Hank's balanced salt solution) and added to neuron cultures on days, 1, 4, 7 and 11 after the start of culturing (final) concentration 5 ng/ml). […]
12 days after the start of culturing, the N-methyl-D-asparate (NMDA)-induced changes in the intracellular calcium level were measured using a fluorescence plate reader (Ascent Fluoroscan). […] The cells were stimulated by adding NMDA (final concentration 200 μM) in the presence of glycine (final concentration 5 μM), and the fluroescence was measured at 15-second intervals over a period of one minute (excitation 485 nm. emission 530 nm). Intracellular calcium concentrations were calculated by the formula [Ca^2]i=Kd.
The arithmetic means was formed from the intracellular calcium concentrations found at all four times of measurement, and the percentage change from the unstimulated controls (basa) calcium concentration) was calculated.
Inhibition of the potentiation, induced chronic IL-6 administration, of the NMDA-mediated calcium influx into primary neurons of the rat cerebellum by galiella lactone. […] The average calcium concentration during the one-minute measurement period was calculated and expressed as a per cent of the basal intracellular calcium concentration. […]

C[C@H]1C=C2C(=O)O[C@H]3CC[C@@H](C1)[C@@]23O [galiella lactone]
IL-6-induced enhancement of the NMDA-mediated calcium influx (1 μM before each IL-6 addition (5 ng/ml), NMDA 200 μM): completely prevented
NMDA-induced increase in average intracellular calcium concentration (chronic administration 1 μM, NMDA 200 μM, without IL-6): somewhat reduced
effect on the basal calcium level (chronic treatment, 1 μM, no NMDA): no effect
